Assay results published in patent US8710233B2 (Gruenenthal GmbH, priority 2005, dated 2014).
pIC50, pKi: −log10 of the molar value. Read-outs that look alike come from different tables or passages of the source.

Assays:
Format in all cases: cell-based
[1] = target: T1, vanilloid receptor 1 (VR1/TRPV1) of the rat species (Rattus norvegicus, UniProt O35433); assay: FLIPR Ca2+ influx assay on rat dorsal root ganglia cells (pharmacological method I); details: for pKi: table 4, capsaicin; for inhibition at 10 µM: read-out: inhibition in percent, Ki (rat) Cap.
T1 construct: The spinal column is removed from decapitated rats; from tissue; host or cells: primary cells dissociated from rat dorsal root ganglia
T1 sequence (O35433 whole entry): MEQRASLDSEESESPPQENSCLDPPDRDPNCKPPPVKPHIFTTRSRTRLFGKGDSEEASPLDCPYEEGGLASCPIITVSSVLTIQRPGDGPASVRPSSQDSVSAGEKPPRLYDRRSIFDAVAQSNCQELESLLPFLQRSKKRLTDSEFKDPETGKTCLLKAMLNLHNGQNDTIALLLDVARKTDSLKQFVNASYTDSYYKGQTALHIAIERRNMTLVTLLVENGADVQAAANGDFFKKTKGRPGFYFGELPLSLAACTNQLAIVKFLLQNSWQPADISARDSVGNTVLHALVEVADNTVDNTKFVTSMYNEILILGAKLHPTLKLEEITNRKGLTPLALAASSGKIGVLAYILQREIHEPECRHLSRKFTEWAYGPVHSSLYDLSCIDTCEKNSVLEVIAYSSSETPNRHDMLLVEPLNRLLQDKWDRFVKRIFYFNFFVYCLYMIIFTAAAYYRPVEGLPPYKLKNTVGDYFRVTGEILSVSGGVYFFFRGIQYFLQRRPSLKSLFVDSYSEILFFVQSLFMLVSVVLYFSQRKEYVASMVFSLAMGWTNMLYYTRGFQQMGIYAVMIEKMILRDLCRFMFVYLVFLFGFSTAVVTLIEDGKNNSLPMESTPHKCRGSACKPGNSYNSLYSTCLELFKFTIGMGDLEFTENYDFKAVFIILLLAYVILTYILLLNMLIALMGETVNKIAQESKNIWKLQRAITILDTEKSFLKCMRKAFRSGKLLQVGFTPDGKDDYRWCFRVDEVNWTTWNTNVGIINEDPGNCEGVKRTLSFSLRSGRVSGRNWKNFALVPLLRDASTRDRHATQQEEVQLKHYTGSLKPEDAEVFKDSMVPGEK
Procedure, shortened: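 Primary rat dorsal root ganglion cells loaded with 2 μM Fluo-4, Ca2+ influx read on FLIPR as peak fluorescence. Triplicates, at least 3 independent experiments.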

VR1/TRPV1 receptor = VR1/TRPV1 receptor (Homo sapiens, UniProt Q8NER1); assay: IC50 (human) after pH stimulus; details: for pIC50: table 4; for inhibition at 1 µM: ne = no effect
VR1/TRPV1 receptor, sequence (Q8NER1 whole entry): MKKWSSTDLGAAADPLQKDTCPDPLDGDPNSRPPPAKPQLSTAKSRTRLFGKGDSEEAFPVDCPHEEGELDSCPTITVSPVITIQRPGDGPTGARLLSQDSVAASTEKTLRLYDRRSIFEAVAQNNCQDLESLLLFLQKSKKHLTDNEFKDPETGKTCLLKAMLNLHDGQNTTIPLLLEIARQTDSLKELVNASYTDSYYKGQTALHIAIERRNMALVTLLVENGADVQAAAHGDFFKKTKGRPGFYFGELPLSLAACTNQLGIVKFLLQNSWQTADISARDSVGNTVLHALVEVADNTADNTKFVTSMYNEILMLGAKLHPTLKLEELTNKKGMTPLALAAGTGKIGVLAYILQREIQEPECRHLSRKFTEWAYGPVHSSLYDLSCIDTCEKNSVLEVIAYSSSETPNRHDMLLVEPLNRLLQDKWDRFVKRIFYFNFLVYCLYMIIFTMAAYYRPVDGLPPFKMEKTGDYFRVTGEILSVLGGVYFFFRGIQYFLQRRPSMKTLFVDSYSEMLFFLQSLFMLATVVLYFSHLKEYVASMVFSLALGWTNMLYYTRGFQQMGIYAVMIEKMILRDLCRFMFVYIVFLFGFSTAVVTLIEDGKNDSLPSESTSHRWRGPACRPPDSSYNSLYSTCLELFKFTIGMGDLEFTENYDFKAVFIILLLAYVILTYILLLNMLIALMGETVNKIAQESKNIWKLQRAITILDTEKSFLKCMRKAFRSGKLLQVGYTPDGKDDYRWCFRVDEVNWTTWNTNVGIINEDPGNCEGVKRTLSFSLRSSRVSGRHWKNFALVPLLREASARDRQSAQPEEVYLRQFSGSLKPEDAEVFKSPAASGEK

vanilloid receptor (VR1) = target: T2, vanilloid receptor (VR1) (Homo sapiens, UniProt Q8NER1); assay: FLIPR Ca2+ influx assay on CHO K1 cells transfected with the VR1 gene (pharmacological method II); details: for inhibition at 10 µM: CHO-K1, read-out: inhibition in percent, Ki (human) Cap.
T2 construct: expressed in transfected cells; host or cells: CHO K1 cells (ECACC), stably transfected
T2 sequence (Q8NER1 whole entry): as above

[2] = table 4, capsaicin, read-out: Ki (human) Cap.
[3] = read-out: inhibition in percent, IC50 (human) after pH stimulus

SMILES	pKi ([1]; read-out: Ki (rat) Cap.)	pIC50 (VR1/TRPV1 receptor)	pKi (vanilloid receptor (VR1); [2])	other results
CCCCCOc1cc(C(C)(C)C)ccc1CNC(=O)C(C)c1ccc(NS(C)(=O)=O)c(F)c1 (centres unmarked) [Example 153, N-(4-tert-butyl-2-pentyloxy-benzyl)-2-(3-fluoro-4-methylsulfonamido-phenyl)-propionamide]	9.15	7.03	8.66	–
CC(C(=O)NCc1ccc(C(C)(C)C)cc1OC1CCCC1)c1ccc(NS(C)(=O)=O)c(F)c1 (centres unmarked) [Example 155, N-(4-tert-butyl-2-cyclopentyloxy-benzyl)-2-(3-fluoro-4-methylsulfonamido-phenyl)-propionamide]	9.10	6.84	8.74	–
CC(C(=O)NCc1ccc(C(F)(F)F)nc1OC1CCC1)c1ccc(NS(C)(=O)=O)c(F)c1 (centres unmarked) [Example 156, N-(2-cyclobutoxy-6-trifluoromethyl-pyridin-3-ylmethyl)-2-(3-fluoro-4-methylsulfonamido-phenyl)-propionamide]	–	7.16	8.85	pKi ([1]; Ki (rat) Cap.): 8.77
CC1CCC(Oc2nc(C(F)(F)F)ccc2CNC(=O)C(C)c2ccc(NS(C)(=O)=O)c(F)c2)CC1 (centres unmarked) [Example 157, 2-(3-fluoro-4-methylsulfonamido-phenyl)-N-[2-(4-methyl-cyclohexyloxy)-6-trifluoromethyl-pyridin-3-ylmethyl]-propionamide]	–	7.37	8.54	pKi ([1]; Ki (rat) Cap.): 8.89
CC(=O)OC1CCN(c2nc(C(F)(F)F)ccc2CNC(=O)C(C)c2ccc(NS(C)(=O)=O)c(F)c2)CC1 (centres unmarked) [Example 158, acetic acid 3′-{[2-(3-fluoro-4-methylsulfonamido-phenyl)-propionylamino]-methyl}-6′-trifluoromethyl-3,4,5,6-tetrahydro-2H-[1,2′]bipyridinyl-4-yl ester]	7.90	6.86	8.40	–
CC(C(=O)NCc1ccc(C(F)(F)F)nc1OCC1CCCC1)c1ccc(NS(C)(=O)=O)c(F)c1 (centres unmarked) [Example 161, N-(2-cyclopentylmethoxy-6-trifluoromethyl-pyridin-3-ylmethyl)-2-(3-fluoro-4-methylsulfonamido-phenyl)-propionamide]	–	7.94	9.40	pKi ([1]; Ki (rat) Cap.): 9.15
CC(C)OC1CCN(c2nc(C(F)(F)F)ccc2CNC(=O)C(C)c2ccc(NS(C)(=O)=O)c(F)c2)CC1 (centres unmarked) [Example 162, 2-(3-fluoro-4-methylsulfonamido-phenyl)-N-(4-isopropoxy-6′-trifluoromethyl-3,4,5,6-tetrahydro-2H-[1,2′]bipyridinyl-3′-ylmethyl)-propionamide]	8.80	–	8.52	inhibition at 1 µM (VR1/TRPV1 receptor; [3]): 58%
CC(C(=O)NCc1ccc(C(F)(F)F)nc1N1CCC(N2CCCCC2)CC1)c1ccc(NS(C)(=O)=O)c(F)c1 (centres unmarked) [Example 164, 2-(3-fluoro-4-methylsulfonamido-phenyl)-N-(6″-trifluoromethyl-3,4,5,6,3′,4′,5′,6′-octahydro-2H,2′H-[1,4′;1′,2″]terpyridin-3″-ylmethyl)-propionamide]	–	–	–	inhibition at 10 µM [1]: 85%; inhibition at 10 µM (VR1/TRPV1 receptor; [3]): 30%; inhibition at 25 µM (VR1/TRPV1 receptor; @ 25 μM, read-out: inhibition in percent, IC50 (human) after pH stimulus): 28%; inhibition at 10 µM (vanilloid receptor (VR1)): 84%
CC(C(=O)NCc1ccc(C(F)(F)F)nc1OC1CCC(C(C)(C)C)CC1)c1ccc(NS(C)(=O)=O)c(F)c1 (centres unmarked) [Example 170, N-[2-(4-tert-butyl-cyclohexyloxy)-6-trifluoromethyl-pyridin-3-ylmethyl]-2-(3-fluoro-4-methylsulfonamido-phenyl)-propionamide]	8.29	6.62	8.11	–
CC(C(=O)NCc1ccc(C(F)(F)F)nc1N1CCN(c2ccncc2)CC1)c1ccc(NS(C)(=O)=O)c(F)c1 (centres unmarked) [Example 176, 2-(3-fluoro-4-methylsulfonamido-phenyl)-N-[2-(4-pyridin-4-yl-piperazin-1-yl)-6-trifluoromethyl-pyridin-3-ylmethyl]-propionamide]	–	–	–	inhibition at 10 µM [1]: 60%; inhibition at 1 µM (VR1/TRPV1 receptor; [3]): 13%; inhibition at 10 µM (VR1/TRPV1 receptor; [3]): 43%; inhibition at 10 µM (vanilloid receptor (VR1)): 63%
CCCCCCOc1nc(C(F)(F)Cl)ccc1CNC(=O)C(C)c1ccc(NS(C)(=O)=O)c(F)c1 (centres unmarked) [Example 180, N-[6-(chloro-difluoro-methyl)-2-hexyloxy-pyridin-3-ylmethyl]-2-(3-fluoro-4-methylsulfonamido-phenyl)-propionamide]	9.52	7.64	9.10	–
CC(C(=O)NCc1ccc(C(F)(F)Cl)nc1OCc1cccnc1)c1ccc(NS(C)(=O)=O)c(F)c1 (centres unmarked) [Example 181, N-[6-(chloro-difluoro-methyl)-2-(pyridin-3-ylmethoxy)-pyridin-3-ylmethyl]-2-(3-fluoro-4-methylsulfonamido-phenyl)-propionamide]	8.25	5.97	7.84	–
CCCCN(CCCC)c1nc(C(F)(F)F)ccc1CNC(=O)C(C)c1ccc(NS(C)(=O)=O)c(F)c1 (centres unmarked) [Example 183, N-(2-dibutylamino-6-trifluoromethyl-pyridin-3-ylmethyl)-2-(3-fluoro-4-methylsulfonamido-phenyl)-propionamide]	9.15	7.98	9.22	–
CCCN(CCC)c1nc(C(F)(F)Cl)ccc1CNC(=O)C(C)c1ccc(NS(C)(=O)=O)c(F)c1 (centres unmarked) [Example 186, N-[6-(chloro-difluoro-methyl)-2-dipropylamino-pyridin-3-ylmethyl]-2-(3-fluoro-4-methylsulfonamido-phenyl)-propionamide]	9.10	7.42	9.22	–
CCOC(=O)C1(c2ccccc2)CCN(c2nc(C(F)(F)F)ccc2CNC(=O)C(C)c2ccc(NS(C)(=O)=O)c(F)c2)CC1 (centres unmarked) [Example 189, 3′-{[2-(3-fluoro-4-methylsulfonamido-phenyl)-propionylamino]-methyl}-4-phenyl-6′-trifluoromethyl-3,4,5,6-tetrahydro-2H-[1,2′]bipyridinyl-4-carbonic acid ethyl ester]	–	6.78	–	pKi ([1]; Ki (rat) Cap.): 8.52; pKi (vanilloid receptor (VR1)): 8.33
CC(C(=O)NCc1ccc(C(F)(F)F)nc1N1CCC(C(F)(F)F)CC1)c1ccc(NS(C)(=O)=O)c(F)c1 (centres unmarked) [Example 190, N-(4,6′-bis-trifluoromethyl-3,4,5,6-tetrahydro-2H-[1,2′]bipyridinyl-3′-ylmethyl)-2-(3-fluoro-4-methylsulfonamido-phenyl)-propionamide]	9.40	7.51	9.22	–

The next lines start with results.

pKi ([1]; read-out: Ki (rat) Cap.)	pIC50 (VR1/TRPV1 receptor)	pKi (vanilloid receptor (VR1); [2])	SMILES	other results
9.15	8.01	9.30	CC(C(=O)NCc1ccc(C(F)(F)F)nc1-c1cccc(Cl)c1)c1ccc(NS(C)(=O)=O)c(F)c1 (centres unmarked) [Example 149, N-[2-(3-chloro-phenyl)-6-trifluoromethyl-pyridin-3-ylmethyl]-2-(3-fluoro-4-methylsulfonamido-phenyl)-propionamide]	–
8.85	7.03	9.00	COc1ccc(-c2nc(C(F)(F)F)ccc2CNC(=O)C(C)c2ccc(NS(C)(=O)=O)c(F)c2)cc1 (centres unmarked) [Example 151, 2-(3-fluoro-4-methylsulfonamido-phenyl)-N-[2-(4-methoxy-phenyl)-6-trifluoromethyl-pyridin-3-ylmethyl]-propionamide]	–
–	6.56	7.90	CCOc1nc(C(F)(F)F)ccc1CNC(=O)C(C)c1ccc(NS(C)(=O)=O)c(F)c1 (centres unmarked) [Example 163, N-(2-ethoxy-6-trifluoromethyl-pyridin-3-ylmethyl)-2-(3-fluoro-4-methylsulfonamido-phenyl)-propionamide]	pKi ([1]; Ki (rat) Cap.): 8.07
9.22	7.39	9.05	CC(C(=O)NCc1ccc(C(F)(F)Cl)nc1OCc1ccccc1)c1ccc(NS(C)(=O)=O)c(F)c1 (centres unmarked) [Example 169, N-[2-benzyloxy-6-(chloro-difluoro-methyl)-pyridin-3-ylmethyl]-2-(3-fluoro-4-methylsulfonamido-phenyl)-propionamide]	–
9.40	7.28	8.82	Cc1ccc(COc2nc(C(F)(F)F)ccc2CNC(=O)C(C)c2ccc(NS(C)(=O)=O)c(F)c2)cc1 (centres unmarked) [Example 172, 2-(3-fluoro-4-methylsulfonamido-phenyl)-N-[2-(4-methyl-benzyloxy)-6-trifluoromethyl-pyridin-3-ylmethyl]-propionamide]	–
8.92	7.60	8.60	CC(C(=O)NCc1ccc(C(F)(F)F)nc1OCc1ccc(F)cc1)c1ccc(NS(C)(=O)=O)c(F)c1 (centres unmarked) [Example 175, N-[2-(4-fluoro-benzyloxy)-6-trifluoromethyl-pyridin-3-ylmethyl]-2-(3-fluoro-4-methylsulfonamido-phenyl)-propionamide]	–
8.70	7.07	8.66	CC(C(=O)NCc1ccc(C(F)(F)F)nc1C=Cc1ccccc1)c1ccc(NS(C)(=O)=O)c(F)c1 (centres unmarked) [Example 191, 2-(3-fluoro-4-(methylsulfonamido)phenyl)-N-((2-styryl-6-(trifluoromethyl)pyridin-3-yl)methyl)propanamide]	–
8.62	7.33	8.85	CC(C(=O)NCc1ccc(C(F)(F)F)nc1CCc1ccccc1)c1ccc(NS(C)(=O)=O)c(F)c1 (centres unmarked) [Example 192, 2-(3-fluoro-4-methylsulfonamido-phenyl)-N-(2-phenethyl-6-trifluoromethyl-pyridin-3-ylmethyl)-propionamide]	–
